Measured values: ChEMBL document CHEMBL1201862, “PubChem BioAssay data set” (2004)
Calls of active or inactive are those of the source.

Columns and labels:
[1] = target: T1, Sentrin-specific protease 8 (Homo sapiens, UniProt Q96LD8); test: SENP8 protease inhibitors, SAR follow-up, biochemical, luminescence (AID 504501); format: functional
T1 sequence (Q96LD8 whole entry): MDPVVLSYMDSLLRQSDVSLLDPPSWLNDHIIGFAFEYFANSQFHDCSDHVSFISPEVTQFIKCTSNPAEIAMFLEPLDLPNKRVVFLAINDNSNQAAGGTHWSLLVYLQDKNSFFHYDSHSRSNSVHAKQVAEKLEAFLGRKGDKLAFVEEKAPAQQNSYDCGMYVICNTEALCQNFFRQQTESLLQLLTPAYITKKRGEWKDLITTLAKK

Caspase-3 = target: T2, Caspase-3 (Homo sapiens, UniProt P42574); test: SAR Analysis of small molecule inhibitors of Sentrin-specific proteases (SENPs) using a Caspase-3 Selectivity assay. [Related pubchem assays (depositor defined):AID2540, AID2599, AID434973, AID489001]; format: functional
T2 sequence (P42574 whole entry): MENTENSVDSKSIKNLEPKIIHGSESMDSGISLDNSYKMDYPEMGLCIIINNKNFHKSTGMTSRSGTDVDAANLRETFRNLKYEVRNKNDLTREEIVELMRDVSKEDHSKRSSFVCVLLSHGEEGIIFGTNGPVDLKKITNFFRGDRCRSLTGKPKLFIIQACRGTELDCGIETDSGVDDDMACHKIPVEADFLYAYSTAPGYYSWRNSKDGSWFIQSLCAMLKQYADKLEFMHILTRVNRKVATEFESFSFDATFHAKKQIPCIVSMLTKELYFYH

[2] = target: T3, Sentrin-specific protease 6 (Homo sapiens, UniProt Q9GZR1); test: SAR Analysis of small molecule inhibitors of Sentrin-specific protease 6 (SENP6) using a Luminescent assay. [Related pubchem assays (depositor defined):AID2582, AID2599]; format: functional
T3 sequence (Q9GZR1 whole entry): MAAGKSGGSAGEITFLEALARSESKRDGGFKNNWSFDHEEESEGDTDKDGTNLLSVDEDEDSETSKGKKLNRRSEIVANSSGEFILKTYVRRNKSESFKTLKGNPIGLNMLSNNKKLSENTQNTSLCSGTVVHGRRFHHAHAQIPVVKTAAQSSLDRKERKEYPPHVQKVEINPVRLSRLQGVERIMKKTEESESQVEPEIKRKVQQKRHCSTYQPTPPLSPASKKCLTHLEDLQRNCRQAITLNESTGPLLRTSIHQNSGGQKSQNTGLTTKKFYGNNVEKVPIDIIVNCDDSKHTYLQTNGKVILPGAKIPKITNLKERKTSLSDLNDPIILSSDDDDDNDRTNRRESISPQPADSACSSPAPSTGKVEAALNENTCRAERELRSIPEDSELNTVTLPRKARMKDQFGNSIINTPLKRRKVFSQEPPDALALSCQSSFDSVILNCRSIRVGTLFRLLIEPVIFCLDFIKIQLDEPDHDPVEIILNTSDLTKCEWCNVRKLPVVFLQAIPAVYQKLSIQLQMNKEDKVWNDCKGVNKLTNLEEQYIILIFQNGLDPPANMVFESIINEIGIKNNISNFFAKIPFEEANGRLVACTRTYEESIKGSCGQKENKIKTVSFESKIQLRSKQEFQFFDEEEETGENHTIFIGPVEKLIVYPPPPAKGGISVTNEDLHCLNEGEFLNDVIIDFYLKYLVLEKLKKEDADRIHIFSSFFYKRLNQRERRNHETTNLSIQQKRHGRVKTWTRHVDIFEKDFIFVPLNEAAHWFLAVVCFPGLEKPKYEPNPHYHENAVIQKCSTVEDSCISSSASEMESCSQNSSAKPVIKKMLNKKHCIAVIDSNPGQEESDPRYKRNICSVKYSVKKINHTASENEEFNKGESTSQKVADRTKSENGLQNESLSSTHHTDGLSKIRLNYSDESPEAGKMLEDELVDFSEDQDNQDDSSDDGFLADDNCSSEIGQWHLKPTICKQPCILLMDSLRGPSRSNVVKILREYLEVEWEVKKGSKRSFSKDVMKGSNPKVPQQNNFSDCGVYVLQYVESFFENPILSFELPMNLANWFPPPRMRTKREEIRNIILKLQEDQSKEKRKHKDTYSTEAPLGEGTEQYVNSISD

[3] = target: T4, Sentrin-specific protease 7 (Homo sapiens, UniProt Q9BQF6); test: SENP7 protease inhibitors, SAR follow-up, biochemical, luminescence (AID 504497); format: functional
T4 sequence (Q9BQF6 whole entry): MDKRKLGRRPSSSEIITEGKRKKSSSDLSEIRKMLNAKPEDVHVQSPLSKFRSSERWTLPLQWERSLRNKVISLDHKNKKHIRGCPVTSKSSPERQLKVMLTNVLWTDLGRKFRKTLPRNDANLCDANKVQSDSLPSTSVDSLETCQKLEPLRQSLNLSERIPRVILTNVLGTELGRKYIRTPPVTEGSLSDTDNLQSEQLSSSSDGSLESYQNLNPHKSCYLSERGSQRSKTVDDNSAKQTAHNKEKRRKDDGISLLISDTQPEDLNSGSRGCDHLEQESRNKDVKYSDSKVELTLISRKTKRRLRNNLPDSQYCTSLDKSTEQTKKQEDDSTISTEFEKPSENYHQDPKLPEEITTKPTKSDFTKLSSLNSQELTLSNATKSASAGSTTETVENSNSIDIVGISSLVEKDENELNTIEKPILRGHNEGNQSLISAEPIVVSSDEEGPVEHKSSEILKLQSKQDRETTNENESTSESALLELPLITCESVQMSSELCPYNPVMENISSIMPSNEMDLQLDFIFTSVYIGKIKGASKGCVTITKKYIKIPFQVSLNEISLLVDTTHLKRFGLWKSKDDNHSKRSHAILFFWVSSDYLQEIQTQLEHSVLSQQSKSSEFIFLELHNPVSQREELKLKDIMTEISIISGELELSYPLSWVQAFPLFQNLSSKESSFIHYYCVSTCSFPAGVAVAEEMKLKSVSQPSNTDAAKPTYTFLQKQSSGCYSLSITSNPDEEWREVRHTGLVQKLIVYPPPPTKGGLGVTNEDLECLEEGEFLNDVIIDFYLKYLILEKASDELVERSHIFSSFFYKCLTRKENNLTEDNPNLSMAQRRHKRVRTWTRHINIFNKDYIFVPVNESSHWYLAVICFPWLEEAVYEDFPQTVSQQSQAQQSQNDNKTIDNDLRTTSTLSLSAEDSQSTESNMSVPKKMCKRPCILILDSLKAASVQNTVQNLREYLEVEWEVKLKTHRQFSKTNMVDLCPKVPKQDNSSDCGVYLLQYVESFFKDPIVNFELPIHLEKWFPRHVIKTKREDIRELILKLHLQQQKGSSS

[4] = target: T5, Aryl hydrocarbon receptor (Homo sapiens, UniProt P35869); settings: Potency;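 also: confirmatory quantitative high-throughput screen measuring activation of the AhR signaling pathway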
T5 sequence (P35869 whole entry): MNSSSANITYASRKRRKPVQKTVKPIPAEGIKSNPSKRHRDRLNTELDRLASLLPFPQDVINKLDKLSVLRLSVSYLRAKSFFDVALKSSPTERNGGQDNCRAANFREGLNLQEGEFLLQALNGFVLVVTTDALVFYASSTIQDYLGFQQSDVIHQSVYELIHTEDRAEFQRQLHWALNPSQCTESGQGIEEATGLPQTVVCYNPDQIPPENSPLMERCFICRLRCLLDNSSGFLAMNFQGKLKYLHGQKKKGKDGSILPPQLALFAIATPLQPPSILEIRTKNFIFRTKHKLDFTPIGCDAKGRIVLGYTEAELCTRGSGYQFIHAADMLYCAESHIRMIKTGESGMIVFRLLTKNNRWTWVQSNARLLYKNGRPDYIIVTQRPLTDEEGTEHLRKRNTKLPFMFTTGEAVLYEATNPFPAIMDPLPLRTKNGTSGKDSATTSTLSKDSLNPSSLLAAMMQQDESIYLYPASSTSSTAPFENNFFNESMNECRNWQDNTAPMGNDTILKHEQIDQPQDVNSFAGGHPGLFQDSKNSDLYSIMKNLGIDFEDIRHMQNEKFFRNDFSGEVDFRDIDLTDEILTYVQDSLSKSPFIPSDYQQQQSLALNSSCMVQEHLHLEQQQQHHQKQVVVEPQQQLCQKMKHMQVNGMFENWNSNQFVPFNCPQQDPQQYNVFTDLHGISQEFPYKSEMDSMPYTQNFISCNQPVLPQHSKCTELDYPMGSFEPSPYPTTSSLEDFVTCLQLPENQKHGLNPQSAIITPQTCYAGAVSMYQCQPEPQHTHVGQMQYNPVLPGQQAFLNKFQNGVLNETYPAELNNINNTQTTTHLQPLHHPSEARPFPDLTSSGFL

[5] = target: T6, Mitochondrial peptide methionine sulfoxide reductase (Bos taurus, UniProt P54149); test: Absorbance-based biochemical high throughput dose response assay for activators of Methionine sulfoxide reductase A (MsrA).; format: functional
T6 sequence (P54149 whole entry): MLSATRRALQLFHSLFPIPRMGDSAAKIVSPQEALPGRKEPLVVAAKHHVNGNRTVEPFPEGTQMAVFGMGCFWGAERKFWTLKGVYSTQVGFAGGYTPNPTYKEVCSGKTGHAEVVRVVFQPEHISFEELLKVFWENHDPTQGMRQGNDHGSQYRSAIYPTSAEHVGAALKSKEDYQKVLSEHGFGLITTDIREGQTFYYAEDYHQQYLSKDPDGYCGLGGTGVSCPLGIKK

Leucine aminopeptidase = target: T7, Leucine aminopeptidase (Plasmodium falciparum 3D7, UniProt Q8IL11); test: P. falciparum M17LAP inhibitors, primary screen, biochemical, fluorogenic H-Leu-NHMec substrate, 1536-well (AID 1619); format: functional
T7 sequence (Q8IL11 whole entry): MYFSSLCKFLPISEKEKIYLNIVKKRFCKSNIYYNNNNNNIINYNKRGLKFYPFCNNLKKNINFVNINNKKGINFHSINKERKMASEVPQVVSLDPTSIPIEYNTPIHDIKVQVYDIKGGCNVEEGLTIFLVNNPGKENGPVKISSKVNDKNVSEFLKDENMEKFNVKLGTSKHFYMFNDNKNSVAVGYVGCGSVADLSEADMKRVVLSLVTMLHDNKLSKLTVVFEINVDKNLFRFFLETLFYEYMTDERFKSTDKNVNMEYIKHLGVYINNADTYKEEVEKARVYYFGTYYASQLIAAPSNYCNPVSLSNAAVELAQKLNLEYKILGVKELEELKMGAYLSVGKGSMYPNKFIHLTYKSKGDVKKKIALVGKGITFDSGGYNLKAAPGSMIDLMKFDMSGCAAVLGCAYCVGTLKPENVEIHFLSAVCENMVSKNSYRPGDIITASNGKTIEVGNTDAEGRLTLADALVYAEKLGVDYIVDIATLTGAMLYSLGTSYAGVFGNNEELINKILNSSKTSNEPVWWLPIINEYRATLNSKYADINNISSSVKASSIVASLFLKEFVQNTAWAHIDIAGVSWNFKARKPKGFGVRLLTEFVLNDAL

Cytochrome P450 2C19 = Cytochrome P450 2C19 (Homo sapiens, UniProt P33261); test: Cytochrome panel assay with activity outcomes. Panel member name: p450-cyp2c19 Compounds with AC50 equal or less than 10 uM are considered active; format: functional; settings: read-out: AC50
Sequence of Cytochrome P450 2C19 (P33261 whole entry): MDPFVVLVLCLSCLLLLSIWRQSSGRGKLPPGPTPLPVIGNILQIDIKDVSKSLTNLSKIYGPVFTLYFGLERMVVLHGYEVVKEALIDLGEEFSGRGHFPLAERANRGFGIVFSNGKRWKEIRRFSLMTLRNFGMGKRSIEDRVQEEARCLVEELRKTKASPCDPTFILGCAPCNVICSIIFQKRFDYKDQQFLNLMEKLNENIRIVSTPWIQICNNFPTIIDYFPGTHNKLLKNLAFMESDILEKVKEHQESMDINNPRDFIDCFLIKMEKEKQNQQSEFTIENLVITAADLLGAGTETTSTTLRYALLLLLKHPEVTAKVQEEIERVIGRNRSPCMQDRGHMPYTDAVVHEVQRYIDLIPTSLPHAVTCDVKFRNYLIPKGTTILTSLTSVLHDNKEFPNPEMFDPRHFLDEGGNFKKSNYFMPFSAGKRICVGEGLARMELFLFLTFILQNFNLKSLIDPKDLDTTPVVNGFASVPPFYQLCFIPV

Cytochrome P450 2C9 = Cytochrome P450 2C9 (Homo sapiens, UniProt P11712)
Sequence of Cytochrome P450 2C9 (P11712 whole entry): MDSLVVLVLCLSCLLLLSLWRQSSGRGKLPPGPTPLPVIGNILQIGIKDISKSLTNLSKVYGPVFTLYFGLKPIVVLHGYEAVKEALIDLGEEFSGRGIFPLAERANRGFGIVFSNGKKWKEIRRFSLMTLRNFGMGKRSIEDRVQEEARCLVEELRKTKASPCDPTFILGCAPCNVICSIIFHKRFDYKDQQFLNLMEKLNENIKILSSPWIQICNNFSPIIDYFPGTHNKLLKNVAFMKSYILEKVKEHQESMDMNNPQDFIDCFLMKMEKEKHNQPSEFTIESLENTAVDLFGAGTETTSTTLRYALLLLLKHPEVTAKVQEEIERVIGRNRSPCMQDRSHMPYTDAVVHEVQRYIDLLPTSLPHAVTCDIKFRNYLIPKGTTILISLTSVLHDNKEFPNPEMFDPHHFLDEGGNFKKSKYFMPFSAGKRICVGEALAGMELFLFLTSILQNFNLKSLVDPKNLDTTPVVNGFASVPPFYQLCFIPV

Melanocortin receptor 4 = Melanocortin receptor 4 (Homo sapiens, UniProt P32245); format: functional, cell-based;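 also: Cell-based assay with luminescence read-out, confirmatory dose-response testing for agonist activity of biased ligands at MC4R; human U2OS cells with tagged receptor and beta-arrestin; potency of agonists that increase receptor coupling to beta-arrestin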
Sequence of Melanocortin receptor 4 (P32245 whole entry): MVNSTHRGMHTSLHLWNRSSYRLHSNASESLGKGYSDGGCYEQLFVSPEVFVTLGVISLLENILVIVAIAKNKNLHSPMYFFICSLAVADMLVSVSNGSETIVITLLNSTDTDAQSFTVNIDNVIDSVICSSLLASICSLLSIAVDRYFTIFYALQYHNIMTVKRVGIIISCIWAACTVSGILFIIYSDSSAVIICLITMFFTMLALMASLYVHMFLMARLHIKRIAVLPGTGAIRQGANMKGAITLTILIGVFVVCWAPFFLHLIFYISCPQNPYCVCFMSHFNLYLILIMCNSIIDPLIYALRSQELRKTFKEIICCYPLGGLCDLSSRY

[6] = inhibitors of intracellular T. cruzi replication, confirmation, NIH3T3 host cells, beta-gal luminescence (AID 2044); format: functional, cell-based;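 also: intracellular parasites grown in NIH/3T3 mouse fibroblasts as host cells; luminescent beta-galactosidase reporter signal from transgenic T. cruzi replicating inside host cells; inhibitors lower the luminescence signal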
[7] = cytotoxicity toward NIH3T3 fibroblasts, dose response, counter-screen, cell-based, ATP luminescence, mouse fibroblasts (AID 2010); format: functional;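 also: cells exposed to compound for about 90 hours before reading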
Vero = test: cells; format: functional; settings: Chlorocebus sabaeus
[8] = AlphaScreen signal interference compounds, dose response, artefact control for ARNT-TACC3 interaction inhibitor project, biochemical, luminescence, cherry-pick (AID 651705); format: functional;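 also: AlphaScreen bead proximity signal that flags compounds interfering with the detection technology; potency reflects signal decrease which marks the compound as an assay artifact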
[9] = ARNT/TACC3 interaction disruptors, potency, confirmation, biochemical, AlphaScreen, cherry-picked samples (AID 651703); format: functional, Homo sapiens;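 also: His-tagged ARNT PAS-B domain paired with GST-TACC3 E629A dimer coactivator fragment; potency of inhibitors that break up the complex and lower AlphaScreen signal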
[10] = target: T8, DNA repair protein RAD52 homolog (Homo sapiens, UniProt P43351); format: functional, biochemical
T8 sequence (P43351 whole entry): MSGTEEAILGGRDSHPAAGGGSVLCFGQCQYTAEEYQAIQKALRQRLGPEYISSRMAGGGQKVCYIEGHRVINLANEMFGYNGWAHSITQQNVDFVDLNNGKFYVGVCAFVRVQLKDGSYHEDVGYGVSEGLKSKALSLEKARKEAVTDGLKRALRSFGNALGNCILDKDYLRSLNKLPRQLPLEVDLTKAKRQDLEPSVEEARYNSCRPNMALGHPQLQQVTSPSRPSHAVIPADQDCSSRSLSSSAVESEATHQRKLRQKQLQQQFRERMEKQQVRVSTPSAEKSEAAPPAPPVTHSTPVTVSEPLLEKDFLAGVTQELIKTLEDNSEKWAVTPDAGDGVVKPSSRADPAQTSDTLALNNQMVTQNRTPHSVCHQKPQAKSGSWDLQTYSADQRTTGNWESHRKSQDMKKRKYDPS

In the case of `COc1ccc(C(=O)Nc2ccc3ccccc3c2)cc1Br`, the IC50 [1] is reported as > 99 µM (inactive), the IC50 (Caspase-3) is reported as > 99 µM (inactive) and the IC50 [2] is reported as > 99 µM (inactive). For the same compound, the IC50 [3] was > 99 µM (inactive).

With `CS(=O)(=O)c1ccc(N/N=C/c2c[nH]c3ccccc23)cc1` the IC50 [1] was > 99 µM (inactive), the IC50 (Caspase-3) was > 99 µM (inactive) and the IC50 [2] was > 99 µM (inactive). The IC50 [3] was > 99 µM (inactive).

For `COP(=O)(OC)SCn1c(=O)oc2cc(Cl)cnc21` [AZAMETHIPHOS], the AC50 [4] was 44.7 µM (inconclusive).

In the case of `Cc1ccc(C)c2nc3sc(C(=O)N4CCOCC4)c(N)c3cc12`, the EC50 [5] is reported as > 104 µM (inactive).

For `Sc1nc2cc(Cl)ccc2s1`, the IC50 (Leucine aminopeptidase) was 14.8 µM (active), the AC50 (Cytochrome P450 2C19) was 11.2 µM (inconclusive) and the EC50 [5] was > 104 µM (inactive). For the same compound, the AC50 (Cytochrome P450 2C9) was 39.8 µM (inconclusive).

For `O=C(NC(c1ccc(Cl)cc1)c1ccccn1)C1CCN(CCOc2ccc(Cl)cc2Cl)CC1` (stereo unspecified), the EC50 (Melanocortin receptor 4) was > 89.2 µM (inactive).

In the case of `COc1cc2nc(Nc3ccc(C)c(C)c3)nc(N)c2cc1OC`, the EC50 [6] is reported as 0.559 µM (active), the EC50 [7] is reported as > 30 µM (not active) and the CC50 (Vero) is reported as 14.8 µM (active). The AC50 [8] was 89.2 µM (active), the AC50 [9] was 74.1 µM (active) and the AC50 [10] was 5.47 µM (active).
